Seven molecules from publication PMC10892871 (Viruses, 2024) can be followed below.

Like-named read-outs stand apart in the source and are kept apart here.

A short description of one data set: in vitro. Particulars: monkey.
The next data set concerns wild type B.1 SARS-CoV-2. It is filed as cell-based.
[1] abbreviates: DAA, concentration causing 10% cytotoxicity.

With `CCC(CC)COC(=O)[C@H](C)N[P@](=O)(OC[C@H]1O[C@@](C#N)(c2ccc3c(N)ncnn23)[C@H](O)[C@@H]1O)Oc1ccccc1` [RDV, remdesivir, reference compound], the “CC10 Mean ± SD” value in the data set on VERO E6 cells (setting [1]) worked out at 4.2 ± 0.6 µM. The CC50 in “in vitro” turned out to be 17.2 ± 0.2 µM.
cilgavimab: in the data set with VERO E6 cells (mAb), the “CC10 Mean ± SD” value is more than 0.36 µg/mL and the “CC50 Mean ± SD” value is more than 0.36 µg/mL. Also, in the data set with wild type B.1 SARS-CoV-2, the “IC90 vs. B.1 Mean ± SD” value is 1.385 ± 0.862 µg/mL.
On to tixagevimab, for which, in the data set with VERO E6 cells (mAb), the “CC10 Mean ± SD” value was more than 0.36 µg/mL and the “CC50 Mean ± SD” value was more than 0.36 µg/mL. In addition, in the data set with wild type B.1 SARS-CoV-2, the “IC90 vs. B.1 Mean ± SD” value came out at 0.305 ± 0.071 µg/mL.
By IC50 is commonly meant the concentration that gives 50% inhibition. In general, IC90 refers to the concentration needed for an effect of 90%. With `O=c1nc(NO)ccn1[C@@H]1O[C@H](CO)[C@@H](O)[C@H]1O` [EIDD-1931, reference compound], the “CC10 Mean ± SD” value in the data set on VERO E6 cells (setting [1]) is 3.1 ± 0.4 µM. Also, the CC50 with VERO E6 cells (read-out: CC50 Mean ± SD, DAA) turned out to be 43.3 ± 6 µM. Further, the 50% inhibitory concentration (IC50) in the data set on wild type B.1 SARS-CoV-2 (read-out: IC50 vs. B.1 Mean ± SD) came to 2.4 ± 0.4 µM. For the same molecule, in the data set with wild type B.1 SARS-CoV-2 (read-out: IC90 vs. B.1 Mean ± SD), the concentration for an effect of 90% (IC90) was found to be 2.5 ± 0.1 µM.
bebtelovimab: in the data set on VERO E6 cells (mAb), the “CC10 Mean ± SD” value was more than 0.06 µg/mL and the “CC50 Mean ± SD” value was more than 0.06 µg/mL. In addition, the “IC90 vs. B.1 Mean ± SD” value in the data set on wild type B.1 SARS-CoV-2 is 0.089 ± 0.009 µg/mL.
Turning to `CC(C)(C)[C@H](NC(=O)C(F)(F)F)C(=O)N1C[C@H]2[C@@H]([C@H]1C(=O)N[C@H](C#N)C[C@@H]1CCNC1=O)C2(C)C` [NRM, nirmatrelvir, reference compound], the “CC10 Mean ± SD” value in the data set on VERO E6 cells (setting [1]) is listed as 2.9 ± 0.2 µM. This molecule displayed a CC50 in “in vitro” of 40.7 ± 4 µM.
As for sotrovimab, in the data set on VERO E6 cells (mAb), the “CC10 Mean ± SD” value is more than 2.4 µg/mL and the “CC50 Mean ± SD” value was more than 2.4 µg/mL. In the data set with wild type B.1 SARS-CoV-2, the “IC90 vs. B.1 Mean ± SD” value came to 1.718 ± 0.594 µg/mL.
